{"source": "patent US4073885A", "about": "(The United States of America as represented by the …, priority 1976, dated 1978)", "key": {"opiate receptor [1]": {"system": "opiate receptor", "test": "Opiate receptor assay ([3H]naloxone binding, rapid filtration, rat brain membranes)", "details": "100 nM"}, "opiate receptor [2]": {"system": "opiate receptor", "test": "Brain enzymatic inactivation as assessed by opiate receptor binding inhibition", "method": "Male rats weighing 180-220 g (Sprangue-Dawley) were decapitated and each brain with the cerebellum removed was homogenized in 150 ml of ice-cold standard buffer (0.05 M Tris-HCl, ph 7.4 at 37°). After centrifugation at 4° at 12,000 × g, the membranes were reconstituted in standard buffer. After recentrifugation, each brain was suspended in 10 ml of the standard buffer.\nAliquots of the freshly prepared membrane preparation (100 μl) were incubated for 1 hr at 0° with 100 mM NaCl in a final volume of 0.5 ml with ^3 H!naloxone (Amersham-Searle, 34 Ci/mmol) in a concentration of 1.3 nM (20,000 cpm). After rapid filtration and washing with two 7-ml portions of ice-cold standard buffer, membrane-laden filters were transferred and counted at 40-45% efficiency at least 6 hours after shaking with detergent scintillation fluor (Aquasol, New England Nuclear).\nThe ability of the blood inhibitory factor eluted from the thin-layer plate to be degraded by enzymes present in brain was examined by incubating the blood substance with membranes or supernatant fluid from rat brain, terminating the enzyme action by boiling, and subsequently adding the product to the opiate receptor assay (see Table 1).\nRat brains were homogenized in 100 volumes (wt/vol) of standard buffer an\nthe particulate fraction and supernatant fluid were obtained by\ncentrifugation for 10 min. at 40,000 × g. After incubation under th\nspecified conditions in a total volume of 1 ml with met-enkephalin or\nthe supernatant fluid were assessed for inhibition in the standard opiate"}, "[3]": {"details": "Chang et al., cited from earlier work"}, "rat": {"system": "rat", "test": "Assessment of analgesia: rat tail-flick test after micro-injection into periaqueductal gray matter", "format": "in vivo", "method": "Eight rats were stereotaxically implanted with chronic indwelling cannulae guides constructed from 23 gauge TW stainless steel tubing. […] Testing was initiated approximately 1 week following surgery. The antinociceptive actions of morphine and anodynin were assessed using a modification of the D'Armour and Smith paradigm in which the latency for a rat to remove its tail from under a radiant heat source is measured in seconds. Baseline \"tail-flick\" latencies were always determined approximately 30 minutes prior to a drug or control injection by four trials separated by 10 sec.\nThe solutions were injected into the central gray matter with 30 guage injectors which extended 2 mm past the tip of the guide cannula. The injection rate was 15 μl/min. Testing for antinociception was initiated immediately after an injection. Animals were tested at 1-min. intervals for 5 min. and then at 10, 15, 30, and 60 min. At the end of the study, all animals were sacrificed and their brains were prepared following standard histological procedures to localize cannulae placements."}}}
{"smiles": "C=CCN1CC[C@@]23CCCC[C@@H]2[C@@H]1Cc1ccc(O)cc13", "note": "[dextrallorphan]", "values": [{"measurement": "effect on 3H-naloxone binding (control incubation)", "setting": "opiate receptor [1]", "result": "did not significantly reduce binding"}]}
{"smiles": "CC(C)C[C@H](NC(=O)[C@H](Cc1ccccc1)NC(=O)CNC(=O)CNC(=O)[C@@H](N)Cc1ccc(O)cc1)C(=O)O", "note": "[enkephalin]", "values": [{"measurement": "Loss of opiate receptor inhibitory activity by brain enzymes", "setting": "opiate receptor [2]; incubation with membranes or supernatant fluid from rat brain", "result": "completely and rapidly reversed"}, {"measurement": "destruction in the brain", "setting": "[3]", "result": "rapidly destroyed"}, {"measurement": "time after micro-injection at which analgesia disappears completely", "setting": "[3]", "result": "1 to 2", "unit": "min"}, {"measurement": "dose required to elicit analgesia relative to morphine", "setting": "[3]; micro-injection", "result": "at least 40 times"}]}
{"smiles": "CSCC[C@H](NC(=O)[C@H](Cc1ccccc1)NC(=O)CNC(=O)CNC(=O)[C@@H](N)Cc1ccc(O)cc1)C(=O)O", "note": "[Net-Enkephalin, H-Tyr-Gly-Gly-Phe-Met-OH]", "values": [{"measurement": "% Inhibition Stereospecific Binding", "setting": "opiate receptor [2]; pre-incubation: Buffer, 1 hr, 37°", "result": 65, "unit": "%"}, {"measurement": "% Inhibition Stereospecific Binding", "setting": "opiate receptor [2]; pre-incubation: rat brain particulate fraction, 0.25 hr, 37°", "result": 39, "unit": "%"}, {"measurement": "% Inhibition Stereospecific Binding", "setting": "opiate receptor [2]; pre-incubation: rat brain particulate fraction, 1 hr, 0°", "result": 65, "unit": "%"}, {"measurement": "% Inhibition Stereospecific Binding", "setting": "opiate receptor [2]; pre-incubation: rat brain particulate fraction, 1 hr, 37°", "result": 2, "unit": "%"}, {"measurement": "% Inhibition Stereospecific Binding", "setting": "opiate receptor [2]; pre-incubation: rat brain supernatant fluid, 1 hr, 37°", "result": 1, "unit": "%"}]}
{"smiles": "CN1CC[C@]23c4c5ccc(O)c4O[C@H]2[C@@H](O)C=C[C@H]3[C@H]1C5", "note": "[morphine]", "values": [{"measurement": "antinociceptive action after pretreatment with naloxone", "setting": "rat; 20 mg/kg naloxone intraperitoneally, 15 min prior", "result": "blocked"}, {"measurement": "behavioral effect (immobility)", "setting": "rat; central gray micro-injection in rats", "result": "stuperous immobility"}]}
